Reference: patent US20230212571A1, “COMPOSITIONS AND METHODS FOR DELIVERING POLYNUCLEOTIDES” (NeOnc Technologies, Inc., priority 2020, published 2023)

What was measured:
AVM-BEC [1] = test: RT-qPCR mRNA expression in AVM-BEC; assay type: cell-based, human
Description: Human surgical specimens were obtained following written informed consent from patients in accordance with Declaration of Helsinki guidelines and the Institutional Review Board (HS-04B053), at Keck School of Medicine, USC. AVM-BECs were isolated from brain tissues of patients who underwent microsurgical AVM resection. Control BECs were isolated from the structurally normal […] of patients who underwent temporal lobectomy for intractable epilepsy. Endothelial cell (EC) isolation and culture were described^5,9. (Stapleton C J, Armstrong D L, Zidovetzki R, Liu C Y, Giannotta S L, Hofman F M. Thrombospondin-1 modulates the angiogenic phenotype of human cerebral arteriovenous malformation endothelial cells. Neurosurgery. 2011; 68(5):1342-1353) (Ferreira R, Santos T, Amar A, et al. Argonaute-2 promotes miR-18a entry in human brain endothelial cells. J Am Heart Assoc. 2014; 3(3):e000968) ECs were only used between passages 3-5. Experiments were performed under shear flow conditions (12 dyn/cm^2) to reproduce arterial flow^6. (Ferreira R, Santos T, Amar A, et al. MicroRNA-18a improves human cerebral arteriovenous malformation endothelial cell function. Stroke. 2014; 45(1):293-297). For hypoxic experiments, cells were cultured in a Galaxy 48R (Eppendorf) incubator at 3% O2. MicroRNAs were co-administered with Ago-2 to increase the cellular uptake of miR-18a^9 (Ferreira R, Santos T, Amar A, et al. Argonaute-2 promotes miR-18a entry in human brain endothelial cells. J Am Heart Assoc. 2014; 3(3):e000968) (FIG. 9). Methods regarding cell treatments and transfections were included in Data.
(§1) MiR-18a (hsa-miR-18a-5p, 40 nM, Dharmacon) or a scramble microRNA (40 nM, Dharmacon) in nuclease-free water was added with argonaute 2 (Ago-2, 0.4 nM, Abcam) as the microRNA carrier and stabilizer^9. (Ferreira R, Santos T, Amar A, et al. Argonaute-2 promotes miR-18a entry in human brain endothelial cells. J Am Heart Assoc. 2014; 3(3):e000968). No transfection reagent was used with miR-18a or scramble microRNA treatments. Recombinant human TSP-1 (R&D Systems) stock solution was prepared in PBS and further diluted in culture medium to be used at a final concentration of 1000 ng/mL. Cells were treated during 24 h for mRNA and 48 h for protein expression studies. NEO100 (NeOnc Technologies) stock was prepared in DMSO and used immediately or stored at −20° C.
(§2) The extraction and analysis of total mRNA and microRNAs were described^9,13. (Ferreira R, Santos T, Amar A, et al. Argonaute-2 promotes miR-18a entry in human brain endothelial cells. J Am Heart Assoc. 2014; 3(3):e000968) (Marín-Ramos N I, Jhaveri N, Thein T Z, Fayngor R A, Chen T C, Hofman F M. NEO212, a conjugate of temozolomide and perillyl alcohol, blocks the endothelial-to-mesenchymal transition in tumor-associated brain endothelial cells in glioblastoma. Cancer Lett. 2018; 442:170-180). The Human Notch Signaling Pathway RT^2 Profiler PCR Array (Qiagen) was used to analyze the expression of 84 genes related to Notch signaling. For mRNA studies, […] (B2M) was measured for sample normalization. The primer sequences were included in Table 2. For microRNA analysis, RNU44 and U6 snRNA TaqMan microRNA Control Assays were used for normalization of human and mice samples, respectively.

[2] = test system: Mgp^−/− mouse model of AVM; test: Organ histology and complete blood count; assay type: in vivo; conditions: Mgp^−/− mice, IN 2-weeks
Procedure: In vivo efficacy studies were performed using 3-week-old Mgp^+/- C57BL/6 mice^16,17 (Yao Y, Jumabay M, Wang A, Boström K I. Matrix Gla protein deficiency causes arteriovenous malformations in mice. J Clin Invest. 2011; 121(8):2993-3004) (Yao Y, Yao […], et al. Reducing Jagged 1 and 2 levels prevents cerebral arteriovenous malformations in matrix Gla protein deficiency. Proc Nat Acad Sci USA. 2013; 110(47):19071-19076). provided by Dr. Yucheng Yao (UCLA, Los Angeles) and mated to obtain the appropriate genotypes. Only about 10-15% of each litter were born with the Mgp^-/- genotype, and among those, only about 45% survived until the end of the treatment and/or the imaging of the brain vasculature, due to the extreme severity of the disease in this mouse model. These animals not only suffer AVMs in the brain, but all major organs are also affected and dysfunctional. Thus, […] might die due to several causes, including stroke, severe lung inflammation that causes respiratory failure-especially when anesthesia is used-, organ failure due to liver and/or spleen malfunction, heart failure, etc., drastically limiting the number of the Mgp^-/- mice available for the CTA studies. […] Treatment with 0.08 nmol/mouse of miR-18a or scramble microRNA was administered IN daily for 2-weeks. 2.5 μL/nostril were delivered in RNase-free water. Ultra-high-resolution in vivo computed tomography angiography (CTA) was performed in mice for 3D imaging of whole brain vascular architecture^18, ([…], Rendon D, et al. Ultra-High-Resolution In vivo Computed Tomography Imaging of Mouse Cerebrovasculature Using a Long Circulating Blood Pool Contrast Agent. Scientific reports. 2015; 5:10178) as described in Data. The vascular data was quantified using ImageJ. Regions of interest encompassing the Circle of Willis (CoW) and the azygous of the anterior cerebral artery (AzACA) and its branches were selected in CT images using thick slab maximum intensity projection (MIP) or 3D volume rendering. The images were converted to 8-bit grayscale and thresholded to highlight the vasculature containing pixels. The pixels were analyzed as particles and normalized to results from the wildtype mice (WT, Mgp^+/+). Immediately after imaging, mice were euthanized, and brains were frozen in Clear Frozen Section Compound (VWR) and stored at -80° C. Blood was collected for complete blood count (Antech). The lungs, livers, spleens, femurs, and kidneys were harvested and fixed in 10% formalin. Photographs of the stained sections were captured using an Eclipse 80i microscope (Nikon).

AVM-BEC [3] = test: Human Notch Signaling Pathway PCR array in AVM-BEC; assay type: cell-based
Procedure: as §1, §2

**Q.** Which results are given for “hsa-miR-18a-5p (UAGGUGCAUCUAGUGCAGAUAG; chemistry not given here; listed as Homo sapiens) [small non-coding RNA molecule involved in post-transcriptional regulation of gene expression; Dharmacon]”?
**A.** BMP4 mRNA expression (AVM-BEC [1]; AVM-BEC, 24 h, vs scramble, P=0.0022): normalized; MMP2 mRNA expression (AVM-BEC [1]; AVM-BEC, P=0.0004): normalized; MMP9 mRNA expression (AVM-BEC [1]; AVM-BEC, P=0.0091): normalized; HIF-1α expression (AVM-BEC [1]; AVM-BEC, hypoxia 3% O2): remained unaltered; HIF-1α expression (AVM-BEC [1]; AVM-BEC, normoxia): significantly (P=0.0025) decreased; ALK2 mRNA expression (AVM-BEC [1]; AVM-BEC, vs scramble, P<0.0001): normalized; MGP mRNA expression (AVM-BEC [1]; AVM-BEC, vs scramble, P<0.0001): normalized; ALK1 mRNA expression (AVM-BEC [1]; AVM-BEC, vs scramble, P=0.0013): normalized; ALK5 mRNA expression (AVM-BEC [1]; AVM-BEC, vs scramble, P=0.0072): normalized; BMP9 mRNA expression (AVM-BEC [1]; non-HHT related AVM-BEC, P>0.05): No significant differences; bone marrow phenotype (adipose cells, megakaryocytes) [2]: normalized; macrophages in alveoli, lung inflammation [2]: not present; polychromasia [2]: minimal or not present; spleens, macroscopic, compared with Mgp^+/+ and Mgp^−/+ [2]: comparable; blood levels of hematocrit (HCT) ([2]; n=3): normalized; blood levels of hemoglobin (HGB) ([2]; n=3): normalized; blood levels of red blood cells (RBC) ([2]; n=3): normalized; ADAM10 mRNA expression (AVM-BEC [3]; FIG. 13): downregulated; Notch-related genes downregulated (AVM-BEC [3]; among the affected genes): 50 genes; Notch-related genes affected (fold change>2) (AVM-BEC [3]; of 84 Notch-related genes): 68 genes
